# Results reported in patent US8735384B2, “Amino heteroaryl compounds as beta-secretase modulators and methods of use” (Amgen Inc., priority 2010, dated 2014).
# What was measured:
# BACE1 = BACE1 (Homo sapiens, UniProt P56817); assay: In vitro enzymatic BACE FRET assay; assay type: biochemical; conditions: beta secretase enzyme 0.2 nM, FRET substrate 50 nM, pH 4.2; read-out: BACE1 FRET assay (IC50 class)
# Procedure, shortened: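 Beta-secretase (0.2 nM) was pre-incubated 1 h with serially diluted inhibitor in 0.05 M acetate pH 4.2, 10% DMSO, 100 uM genapol. Then 50 nM quenched peptide FRET substrate was added for 1 h. The reaction was stopped with Tris to neutral pH and fluorescence read ([…]).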
# [1] = tested on: Aβ40 in conditioned medium of cells stably expressing Amyloid Precursor Protein (APP); assay: In vitro BACE cell-based assay (HEK cell assay), Aβ40 sandwich ELISA; conditions: Homo sapiens, HEK293, 24 h, inhibition of Aβ40, 24 h incubation, read-out: HEK cell assay (IC50 class)
# Procedure, shortened: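 APP-stably expressing cells (40K/well) grown 24 h, then treated 24 h with 10-point doses from 100 μM or 10 μM top (0.1% DMSO). Secreted Aβ40 quantified by sandwich ELISA (pAb40 capture, biotinylated 6E10 detection, europium time-resolved fluorescence); IC50 from percent inhibition versus concentration.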
# Chain of BACE1 (P56817 46-501, species assumed): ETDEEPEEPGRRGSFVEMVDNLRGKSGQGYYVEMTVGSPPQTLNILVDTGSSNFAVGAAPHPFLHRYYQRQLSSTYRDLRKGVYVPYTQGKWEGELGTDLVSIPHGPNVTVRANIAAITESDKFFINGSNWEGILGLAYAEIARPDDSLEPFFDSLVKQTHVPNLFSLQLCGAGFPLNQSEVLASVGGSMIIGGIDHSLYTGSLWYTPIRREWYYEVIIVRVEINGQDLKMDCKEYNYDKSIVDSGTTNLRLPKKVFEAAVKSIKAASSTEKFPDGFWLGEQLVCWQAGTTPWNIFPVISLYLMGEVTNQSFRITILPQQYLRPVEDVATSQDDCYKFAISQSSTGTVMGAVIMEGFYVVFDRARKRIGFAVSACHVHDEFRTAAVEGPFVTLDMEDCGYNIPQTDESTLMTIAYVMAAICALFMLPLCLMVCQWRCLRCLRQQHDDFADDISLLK
IC50 (BACE1),IC50 [1],SMILES
< 100 nM,501 to 1000 nM,"Cc1cccc(C(=O)N2CCCC2)c1-c1ccc2nc(N)c(N3CCOC(C)C3C)cc2c1 (stereo not shown) [Example 209, (2-(2-amino-3-(2,3-dimethylmorpholino)quinolin-6-yl)-3-methylphenyl)(pyrrolidin-1-yl)methanone]"
501 to 1000 nM,1010 to 5000 nM,"Cc1cccc(C(=O)N2CCCC2)c1-c1ccc2nc(N)c(N3CCOC[C@@H]3C)cc2c1 [Example 210, (S)-(2-(2-amino-3-(3-methylmorpholino)quinolin-6-yl)-3-methylphenyl)(pyrrolidin-1-yl)methanone]"
< 100 nM,100 to 500 nM,"Cc1cccc(C(=O)N2CCC(F)(F)C2)c1-c1ccc2nc(N)c(C3CCOCC3)cc2c1 [Example 211, (2-(2-amino-3-(tetrahydro-2H-pyran-4-yl)quinolin-6-yl)-3-methylphenyl)(3,3-difluoropyrrolidin-1-yl)methanone]"
< 100 nM,< 100 nM,"COc1ccccc1C(=O)c1cccc(C)c1-c1ccc2nc(N)c(C3CCOCC3)cc2c1 [Example 212, (2-(2-amino-3-(tetrahydro-2H-pyran-4-yl)quinolin-6-yl)-3-methylphenyl)(2-methoxyphenyl)methanone]"
< 100 nM,1010 to 5000 nM,"Cc1cccc(C(=O)N2CCCC2)c1-c1ccc2nc(N)c(N3CCOC(CC(C)C)C3)cc2c1 (stereo not shown) [Example 213, (2-(2-amino-3-(2-isobutylmorpholino)quinolin-6-yl)-3-methylphenyl)(pyrrolidin-1-yl)methanone]"
< 100 nM,100 to 500 nM,"COCCC1CN(c2cc3cc(-c4c(C)cccc4C(=O)N4CCCC4)ccc3nc2N)CCO1 (stereo not shown) [Example 214, (2-(2-amino-3-(2-(2-methoxyethyl)morpholino)quinolin-6-yl)-3-methylphenyl)(pyrrolidin-1-yl)methanone]"
< 100 nM,501 to 1000 nM,"Cc1cccc(C(=O)N2CCCC2)c1-c1ccc2nc(N)c(N3CCOC(C)(C)C3)cc2c1 [Example 215, (2-(2-amino-3-(2,2-dimethylmorpholino)quinolin-6-yl)-3-methylphenyl)(pyrrolidin-1-yl)methanone]"
100 to 500 nM,1010 to 5000 nM,"Cc1ccc(C2(C)CN(c3cc4cc(-c5c(C)cccc5C(=O)N5CCCC5)ccc4nc3N)CCO2)cc1 (stereo not shown) [Example 217, (2-(2-amino-3-(2-methyl-2-p-tolylmorpholino)quinolin-6-yl)-3-methylphenyl)(pyrrolidin-1-yl)methanone]"
501 to 1000 nM,> 5000 nM,"Cc1ccccc1-c1ccc2nc(N)c(N3CCOCC3)cc2c1 [Example 218, 3-morpholino-6-o-tolylquinolin-2-amine]"
501 to 1000 nM,> 5000 nM,"Nc1nc2ccc(-c3ccccc3Cl)cc2cc1N1CCOCC1 [Example 219, 6-(2-chlorophenyl)-3-morpholinoquinolin-2-amine]"
1010 to 5000 nM,> 5000 nM,"Nc1nc2ccc(-c3ccccc3F)cc2cc1N1CCOCC1 [Example 220, 6-(2-fluorophenyl)-3-morpholinoquinolin-2-amine]"
